Experimental data from patent US5719145A, “Amidine derivatives and platelet aggregation inhibitor containing the same” (Mitsui Toatsu Chemicals, Inc., priority 1996, dated 1998).
Structures can show the parent of a compound that is named as a salt.

Legend:
[1] = tested on: human platelets (platelet-rich plasma); experiment: In vitro inhibition of platelet aggregation in human (ADP-induced, PRP); assay type: cell-based; conditions: ADP final concentration 5 μM, read-out: Platelet aggregation inhibitory activity in human, IC50
Procedure: 2. Inhibition of platelet aggregation in human
Blood was collected from healthy human volunteers with an injection syringe and mixed one volume of 3.8% of sodium citrate as an anticoagulant to 9 volumes of the blood. Successively, the obtained blood mixture was subjected to centrifugation at 120×g for 15 minutes at room temperature to obtain platelet-rich plasma (PRP). An aliquot of PRP was further subjected to centrifugation at 1,200×g for 20 minutes to obtain platelet-poor plasma (PPP). Numbers of the platelet were measured with an automatic platelet counter: Sysmex PL-100 (manufactured by Toa Iyodenshi Co.) and PRP was diluted with PPP so as to adjust a platelet concentration to be about 250,000 particles/μl. Platelet aggregation was measured by the following procedure with a 6 channel aggregometer: HEMA TRACER 1 (manufactured by NKK Co.)
(§1) After incubation of 240 μl of PRP at 37° C. for 2 minutes, 30 μl of the solvent of specimen as a control or the specimen in various concentrations was added to PRP. Further 2 minutes later, 30 μl of adenosine diphosphate (final concentration: 5 μM) was added to induce platelet aggregation. An inhibition percentage was obtained by comparing the maximum aggregation of the specimen drug group with that of control. […]

[2] = tested on: guinea pig platelets (platelet-rich plasma); experiment: In vitro inhibition of platelet aggregation in guinea pig (ADP-induced, PRP); assay type: cell-based; conditions: Cavia porcellus, ADP final concentration 5 μM, read-out: Platelet aggregation inhibitory activity in guinea pig, IC50
Procedure: In vitro experiment of platelet aggregation inhibition
1. Inhibition of platelet aggregation in Guinea pig
Blood of male guinea pig was collected with an injection syringe which contains 3.8 % sodium citrate as an anticoagulant in a ratio of 1 volume to 9 volumes of the blood. Successively, the collected blood mixture was subjected to centrifugation at 120×g for 15 minutes at room temperature to obtain platelet-rich plasma (PRP). An aliquot of PRP was further subjected to centrifugation at 1,200×g for 15 minutes to obtain platelet-poor plasma (PPP). Numbers of the platelet in PRP were measured with an automatic platelet counter: Sysmex PL-100 (manufactured by Toa Iyodenshi Co.) and PRP was diluted with PPP so as to adjust a platelet concentration to be about 300,000 particles/ μl. Platelet aggregation was measured by the following procedure with a 6 channel aggregometer: HEMA TRACER 1 (manufactured by NKK Co.).
as §1, with “control or of the specimen” for “control or the specimen”, “(final concentration: 5μM) was added” for “(final concentration: 5 μM) was added”

[3] = molecular target: T1, human fibrinogen receptor GP IIb/IIIa (Homo sapiens, UniProt P05106+P08514); experiment: Binding inhibition of biotinylated fibrinogen to GP IIb/IIIa; conditions: purified human GP IIb/IIIa, read-out: Inhibition of GPIIb/IIIa . Fibrinogen Binding, IC50
T1 construct: Concentrated and lyophilized human platelet (20 vial) (Organon Teknika Co.) was lysed; tissue Organon Teknika Co; host or cells: human platelets (lyophilized), lysed in Triton X-100
Procedure: Experiment for binding inhibition between GP IIb/IIIa and fibrinogen
1. Purification of human fibrinogen receptor GP IIb/IIIa
Concentrated and lyophilized human platelet (20 vial) (Organon Teknika Co.) was lysed in an antienzymic solution (80 ml) (1% Triton X-100, 10 mM Tris-HCl, 150 mM NaCl, 1 mM CaCl2, 10 μM leupeptin, 1 mM phenylmethane sulfonyl fluoride, pH 7.4), allowed to incubate for an hour at 4° C., and centrifuged at 30,000×g for 15 minutes to recover the supernatant solution containing 150 mg of protein. The GP IIb/IIIa was purified according to the method of Phillips et al. [Methods in Enzymology Vol. 215, (J. J. Hawigar, Eds.), 244-263, Acedemic Press Inc., San Diego].
2. Preparation of biotinylated fibrinogen
Human fibrinogen Grade L (KABI Co.) was purified by using Shepharose CL-6B and Lysine-Sepharose. Thus purified human fibrinogen (2.3 mg/ml) was dialyzed for 3 hours with 0.1M aqueous sodium bicarbonate solution at room temperature and successively diluted to 1 mg/ml. To the solution (4.5 ml) obtained, NHC-LC-Biotin (2 mg) (Pierce Co.) was added and reacted for 1 hour at room temperature to biotinylate fibrinogen. The reaction mixture was dialyzed at 4° C. for 24 hours with TBS (20 mM Tris-HCl, 150 mM NaCl, 1 mM CaCl2, 1 mM MgCl2, pH 7.4) to obtain biotinylated fibrinogen.
3. Binding inhibition of biotinylated fibrinogen to GP IIb/IIIa
Specimen drugs were dissolved and diluted with TBS containing 1% BSA. To each solution, an equal volume of biotinylated fibrinogen (2 μg/ml) dissolved in TBS containing 1% BSA, was added. The inhibition percentage of specimen drugs were measured by the method of Mori et al. [Jpn. J. Thromb. Hemost., 2, 323-399 (1991) with small modification].
Purified GP IIb/IIIa was diluted to 1.5 μg/ml in TBS containing 0.0005% of Triton X-100. The GP IIb/IIIa solution was added to a 96 well microplate (E.I.A/R.I.A. Plate, Costar Co.) in a volume of 100 μl for each well, and incubated at 4° C. for 24 hours to immobilize GP IIb/IIIa. The microplate was washed twice with a washing solution (TBS containing 0.01% of Tween 20). Thereafter TBS containing 3.5% of BSA was added to each well in a volume of 200 μl and blocking was carried out for about an hour at room temperature. The microplate was further washed twice with the washing solution, and successively a mixture of the specimen drug and the biotinylated fibrinogen was added in a volume of 100 μl/well and incubated for 24 hours at room temperature. The microplate was thereafter washed five times, and peroxidase-labeled streptoavidin (a kit of Amersham Co.) which was previously diluted 3000 times with TBS was added in a volume of 100 μl/well and incubated for about 30 minutes at room temperature. After washing the microplate 5 times, a 0.05M phosphate-citrate buffer solution (pH5) containing o-phenylenediamine(0.4 mg/ml) (manufactured by Sigma Co.) and H2 O2 (0.012%) was added in a volume of 200 μl/well to develop color for 20-40 minutes. The reaction was stopped by addition of 0.3M sulfuric acid in a volume of 50 μl/well and absorbance at 490 nm was measured with Immunoreader NJ-200 (manufactured by Inter Med Co.). […]

T1 sequence (P08514 32-887 limits assumed): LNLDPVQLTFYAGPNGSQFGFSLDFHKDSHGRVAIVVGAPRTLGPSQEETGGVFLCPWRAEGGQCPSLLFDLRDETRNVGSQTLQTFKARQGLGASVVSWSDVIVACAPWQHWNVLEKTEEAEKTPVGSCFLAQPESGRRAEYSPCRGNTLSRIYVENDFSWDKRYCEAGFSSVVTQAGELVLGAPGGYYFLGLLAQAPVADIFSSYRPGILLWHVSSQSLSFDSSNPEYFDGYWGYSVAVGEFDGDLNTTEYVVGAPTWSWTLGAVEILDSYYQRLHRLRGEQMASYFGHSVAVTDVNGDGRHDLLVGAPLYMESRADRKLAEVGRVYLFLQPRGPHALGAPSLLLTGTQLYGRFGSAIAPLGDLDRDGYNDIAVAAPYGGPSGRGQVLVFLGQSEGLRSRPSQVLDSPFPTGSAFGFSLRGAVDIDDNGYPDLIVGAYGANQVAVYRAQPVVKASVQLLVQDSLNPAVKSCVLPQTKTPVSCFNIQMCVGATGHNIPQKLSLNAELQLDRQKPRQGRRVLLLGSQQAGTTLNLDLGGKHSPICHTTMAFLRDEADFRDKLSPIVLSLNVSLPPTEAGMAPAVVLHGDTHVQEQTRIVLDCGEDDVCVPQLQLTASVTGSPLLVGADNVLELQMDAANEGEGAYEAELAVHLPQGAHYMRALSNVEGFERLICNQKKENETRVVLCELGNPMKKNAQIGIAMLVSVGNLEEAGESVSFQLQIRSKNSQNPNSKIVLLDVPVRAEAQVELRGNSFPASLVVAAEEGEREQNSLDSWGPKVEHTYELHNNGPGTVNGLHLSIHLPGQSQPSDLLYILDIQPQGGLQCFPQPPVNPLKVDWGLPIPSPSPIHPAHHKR
T1 sequence (P08514 891-1039 partner limits assumed): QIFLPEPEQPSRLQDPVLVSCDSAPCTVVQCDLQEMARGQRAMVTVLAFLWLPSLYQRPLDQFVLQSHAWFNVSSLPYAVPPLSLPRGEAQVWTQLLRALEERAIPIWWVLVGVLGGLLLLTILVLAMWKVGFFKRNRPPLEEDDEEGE
T1 sequence (P05106 27-788): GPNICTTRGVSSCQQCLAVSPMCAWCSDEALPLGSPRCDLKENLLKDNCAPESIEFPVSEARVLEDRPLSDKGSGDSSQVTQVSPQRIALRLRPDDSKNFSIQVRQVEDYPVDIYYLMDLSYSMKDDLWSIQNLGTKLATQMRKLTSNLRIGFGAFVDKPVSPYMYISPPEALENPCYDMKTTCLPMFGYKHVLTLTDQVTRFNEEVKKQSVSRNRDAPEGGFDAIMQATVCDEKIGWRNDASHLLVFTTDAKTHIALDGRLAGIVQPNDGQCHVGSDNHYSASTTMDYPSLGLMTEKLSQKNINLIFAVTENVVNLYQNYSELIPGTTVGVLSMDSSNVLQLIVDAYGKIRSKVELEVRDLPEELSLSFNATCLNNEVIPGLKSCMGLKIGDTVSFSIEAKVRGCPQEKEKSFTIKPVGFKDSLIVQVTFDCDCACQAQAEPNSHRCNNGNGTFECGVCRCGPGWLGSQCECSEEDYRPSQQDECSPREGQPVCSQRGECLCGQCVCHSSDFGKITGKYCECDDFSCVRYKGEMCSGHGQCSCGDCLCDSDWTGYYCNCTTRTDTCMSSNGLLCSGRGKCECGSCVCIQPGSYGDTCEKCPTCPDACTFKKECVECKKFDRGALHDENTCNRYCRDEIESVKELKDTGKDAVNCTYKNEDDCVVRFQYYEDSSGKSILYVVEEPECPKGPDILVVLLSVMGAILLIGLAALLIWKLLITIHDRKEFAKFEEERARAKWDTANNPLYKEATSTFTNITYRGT

Row | Structure (SMILES) | IC50 [1] [nM] | IC50 [2] [nM] | IC50 [3] [nM]
1 | N=C(c1ccc(C(=O)Nc2ccc3c(c2)CC(CC(=O)O)CC3)cc1)N1CCSCC1 (stereo not drawn) [Example 13, 7-[[4-(thiomorpholinoiminomethyl)benzoyl]amino]-1,2,3,4-tetrahydronaphthalene-2-acetic acid hydrochloride] | 60 | 170 | 0.28
2 | C#CCN=C(N)c1ccc(C(=O)Nc2ccc3c(c2)CC(CC(=O)O)CC3)cc1 (stereo not drawn) [Example 25, 7-[[4-(N^2-propargylamidino)benzoyl]amino]-1,2,3,4-tetrahydronaphthalene-2-acetic acid hydrochloride] | 100 | 280 | 0.18
